In patent publication US10538497B2, “Compounds as indoleamine 2,3-dioxygenase inhibitors” (Merck Sharp & Dohme Corp., priority 2015, dated 2020):

Experiments:
[1] = biological target: T1, IDO1 (Homo sapiens (Human), UniProt P14902); assay: IDO1 Enzyme Assay; details: HIS-tagged recombinant IDO1, 40 nM
[2] = biological target: T1, IDO1; assay: IDO1 Cellular Assay in Frozen HEK293 Cells Transiently Transfected with Human IDO1; format: cell-based; details: read-out: IDO1 HEK293 Cell Assay, IC50
Protocol: IDO1 Cellular Assay in Frozen HEK293 Cells Transiently Transfected with Human IDO1
HEK293 cells were cultured in complete HEK293 culture medium (90% DMEM, 10% heat-inactivated fetal bovine serum). When reaching sub-confluent, the cells were trypsinized and neutralized with complete medium. […] Flag-IDO1 plasmid was added to the cell suspension at a concentration of 100 μg/mL. The cell-plasmid solutions were transferred to the OC-400 processing assembly (Maxcyte), 400 l/unit and the units were placed in a Maxcyte instrument to carry out flow electroporation for transfection. The cells were then transferred to a sterile 24-well cell culture plate to recover for 20-30 min at 37° C. in an incubator with 5% CO2.
Frozen HEK293/IDO1 and HEK293 WT cells were thawed and transferred into HEK293 assay medium (99% complete HEK293 culture medium, 1% Pen/Strep) with 20 mL medium/vial of cells. The cells were spun down at 250 g in a table top centrifuge for 5 min and suspended in same volume of HEK293 assay medium. […] Sterile L-tryptophan were added to the cells with final concentration of 300 μM.
(§1) HEK293/IDO1 and HEK293 WT cells were dispensed to the respective wells of 384-well assay plates containing the compounds. The plates were incubated for about 28-30 h at a 37° C., 5% CO2 incubator. […] The plates were centrifuged for 1 min at 200×g. The resulting fluorescence was measured in a Spectramax plate reader (Molecular Devices) with a 400 nm excitation filter and a 510 nm emission filter.

[3] = biological target: T1, IDO1; assay: IDO1 Cellular Assay in Hela Cells Stimulated with IFNγ; format: cell-based; details: Hela cells stimulated with IFNγ 100 ng/mL; read-out: IDO1 HELA Cell Assay, IC50
Protocol: IDO1 Cellular Assay in Hela Cells Stimulated with IFNγ
Hela cells were cultured in complete Hela culture medium (90% EMEM, 10% heat-inactivated fetal bovine serum) and expanded to about 1×10^9 cells. The cells were then collected and frozen down at 10×10^6 cells/vial in 1 mL frozen medium (90% complete Hela culture medium, 10% DMSO)
Frozen Hela cells were thawed and transferred into Hela assay medium (99% complete Hela culture medium, 1% Pen/Strep) with 20 mL medium/vial of cells. The cells were spun down at 250 g in a table top centrifuge for 5 min and suspended in same volume of Hela assay medium. The cells were then counted and adjusted to a density of 2×10^5 cells/ml in Hela assay medium. Sterile L-tryptophan were added to the cells with final concentration of 300 uM L-tryptophan. A small aliquot (2 mL/plate) of Hela cells were set aside and were not treated with IFNγ, to serve as the Max-E control. The rest of Hela cells were added with sterile IFNγ (Cat #285-IF, R & D systems) with a final concentration of 100 ng/mL.
as §1, with “Hela cells with” for “HEK293/IDO1”, “without IFNγ” for “HEK293 WT cells”, “48 hours” for “28-30 h”

[4] = read-out: IDO1 Enzyme Assay, IC50
[5] = HEK293 cells transiently transfected with human IDO1

T1 sequence (P14902 whole entry): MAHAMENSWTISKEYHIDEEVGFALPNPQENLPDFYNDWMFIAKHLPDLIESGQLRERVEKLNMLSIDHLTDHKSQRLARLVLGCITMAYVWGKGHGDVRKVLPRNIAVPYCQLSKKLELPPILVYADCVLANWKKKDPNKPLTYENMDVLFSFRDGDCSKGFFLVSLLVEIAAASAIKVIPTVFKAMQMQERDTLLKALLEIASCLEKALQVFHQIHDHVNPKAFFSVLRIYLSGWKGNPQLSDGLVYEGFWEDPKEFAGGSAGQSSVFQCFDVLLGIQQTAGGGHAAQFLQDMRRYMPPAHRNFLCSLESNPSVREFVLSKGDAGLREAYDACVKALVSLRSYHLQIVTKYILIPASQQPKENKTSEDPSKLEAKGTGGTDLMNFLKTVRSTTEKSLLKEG

IC50 [1, 4] [nM]	IC50 [3] [nM]	IC50 [2, 5] [nM]	IC50 ([1]; IDO1 Enzyme Assay, IC50, nM) [nM]	Structure (SMILES)	IC50 [2] [nM]
105	> 10000	> 10000		O=C(O)CSc1nonc1/C(=N/O)Nc1ccc(F)c(Br)c1 [Example 15, (Z)-2-((4-(N-(3-bromo-4-fluorophenyl)-N′-hydroxycarbamimidoyl)-1,2,5-oxadiazol-3-yl)thio)acetic acid]	
	301	218	77.7	Cc1nc(CSc2nonc2C(=NO)Nc2ccc(F)c(Br)c2)no1 [Example 155, N-(3-bromo-4-fluorophenyl)-N′-hydroxy-4-{[(5-methyl-1,2,4-oxadiazol-3-yl)methyl]sulfanyl}-1,2,5-oxadiazole-3-carboximidamide]	
34.5	56.2	65.6		O=C1NCC(CSc2nonc2/C(=N/O)Nc2ccc(F)c(Br)c2)O1 (stereo not drawn) [Example 124, N-(3-bromo-4-fluorophenyl)-N′-hydroxy-4-{[(2-oxo-1,3-oxazolidin-5-yl)methyl]sulfanyl}-1,2,5-oxadiazole-3-carboximidamide]	
	40.8	40	54.2	O=C(CSc1nonc1C(=NO)Nc1ccc(F)c(Br)c1)NCCO [Example 112, 2-({4-[N-(3-bromo-4-fluorophenyl)-N′-hydroxycarbamimidoyl]-1,2,5-oxadiazol-3-yl}sulfanyl)-N-(2-hydroxyethyl)acetamide]	
67.7	65.3	56		OCCCCSc1nonc1/C(=N/O)Nc1ccc(F)c(Br)c1 [Example 20, (Z)-N-(3-bromo-4-fluorophenyl)-N′-hydroxy-4-((4-hydroxybutyl)thio)-1,2,5-oxadiazole-3-carboximidamide]	
74.8	104	174		O/N=C(\Nc1ccc(F)c(Br)c1)c1nonc1SC1CNC1 [Example 26, (Z)-4-(azetidin-3-ylthio)-N-(3-bromo-4-fluorophenyl)-N′-hydroxy-1,2,5-oxadiazole-3-carboximidamide]	
407	91.2	109		NS(=O)(=O)c1ccc(CCSc2nonc2/C(=N/O)Nc2ccc(F)c(Br)c2)cc1 [Example 71, N-(3-bromo-4-fluorophenyl)-N′-hydroxy-4-{[2-(4-sulfamoylphenyl)ethyl]sulfanyl}-1,2,5-oxadiazole-3-carboximidamide]	
126	138	114		OC[C@H](O)CSc1nonc1/C(=N/O)Nc1ccc(F)c(C(F)(F)F)c1 [Example 166, 4-{[(2S)-2,3-dihydroxypropyl]sulfanyl}-N-[4-fluoro-3-(trifluoromethyl)phenyl]-N′-hydroxy-1,2,5-oxadiazole-3-carboximidamide]	
99.5	145	364		O=c1[nH]nc(CSc2nonc2/C(=N/O)Nc2ccc(F)c(Br)c2)cc1C(F)(F)F [Example 92, N-(3-bromo-4-fluorophenyl)-N′-hydroxy-4-({[6-oxo-5-(trifluoromethyl)-1,6-dihydropyridazin-3-yl]methyl}sulfanyl)-1,2,5-oxadiazole-3-carboximidamide]	

The remaining lines, values behind:

Structure (SMILES)	IC50 [1, 4] [nM]	IC50 [3] [nM]	IC50 [2, 5] [nM]	IC50 ([1]; IDO1 Enzyme Assay, IC50, nM) [nM]	IC50 [2] [nM]
CNP(=O)(CCSc1nonc1/C(=N/O)Nc1ccc(F)c(Br)c1)NC [Example 103, 4-({2-[bis(methylamino)phosphoryl]ethyl}sulfanyl)-N-(3-bromo-4-fluorophenyl)-N′-hydroxy-1,2,5-oxadiazole-3-carboximidamide]	48.5	32.3			84.5
CC(=O)N[C@@H](C)CSc1nonc1/C(=N/O)Nc1ccc(F)c(C#N)c1 [Example 180, N-[(1S)-2-({4-[N-(3-cyano-4-fluorophenyl)-N′-hydroxycarbamimidoyl]-1,2,5-oxadiazol-3-yl}sulfanyl)-1-methylethyl]acetamide]	196	426	309		
OCCCSc1nonc1/C(=N/O)Nc1ccc(F)c(Br)c1 [Example 19, (Z)-N-(3-bromo-4-fluorophenyl)-N′-hydroxy-4-((3-hydroxypropyl)thio)-1,2,5-oxadiazole-3-carboximidamide]	71.9	39.7	39.7		
CC(=O)NCCSc1nonc1/C(=N/O)Nc1ccc(F)c(C)c1 [Example 51, N-[2-({4-[N-(4-fluoro-3-methylphenyl)-N′-hydroxycarbamimidoyl]-1,2,5-oxadiazol-3-yl}sulfanyl)ethyl]acetamide]	113	48.1	106		
ON=C(Nc1ccc(F)c(Br)c1)c1nonc1SCC1CCOCC1 [Example 162, N-(3-bromo-4-fluorophenyl)-N′-hydroxy-4-[(tetrahydro-2H-pyran-4-ylmethyl)sulfanyl]-1,2,5-oxadiazole-3-carboximidamide]		322	167	111	
ON=C(Nc1ccc(F)c(Br)c1)c1nonc1SCc1nccs1 [Example 157, N-(3-bromo-4-fluorophenyl)-N′-hydroxy-4-[(1,3-thiazol-2-ylmethyl)sulfanyl]-1,2,5-oxadiazole-3-carboximidamide]		113	104	63.8	
ON=C(Nc1ccc(F)c(Br)c1)c1nonc1SCCn1cncn1 [Example 154, N-(3-bromo-4-fluorophenyl)-N′-hydroxy-4-{[2-(1H-1,2,4-triazol-1-yl)ethyl]sulfanyl}-1,2,5-oxadiazole-3-carboximidamide]		41	26.1	31.4	
CN1C(=O)NC[C@@H]1CSc1nonc1/C(=N/O)Nc1ccc(F)c(Br)c1 [Example 43, (R)—N-(3-bromo-4-fluorophenyl)-N′-hydroxy-4-(((3-methyl-2-oxoimidazolidin-4-yl)methyl)thio)-1,2,5-oxadiazole-3-carboximidamide]	53.3	118	78.5		
CCCSc1nonc1/C(=N/O)Nc1ccc(F)c(Br)c1 [Example 23, (Z)-N-(3-bromo-4-fluorophenyl)-N′-hydroxy-4-(propylthio)-1,2,5-oxadiazole-3-carboximidamide]	187	154	263		
CCCCNC(=O)NCCSc1nonc1C(=NO)Nc1ccc(F)c(Br)c1 [Example 127, N-(3-bromo-4-fluorophenyl)-4-({2-[(bulylcarbamoyl)amino]ethyl}sulfanyl)-N′-hydroxy-1,2,5-oxadiazole-3-carboximidamide]	33.5	219	115		
N#CC12CC(CSc3nonc3/C(=N/O)Nc3ccc(F)c(Br)c3)(C1)C2 [Example 80, N-(3-bromo-4-fluorophenyl)-4-{[(3-cyanobicyclo[1.1.1]pent-1-yl)methyl]sulfanyl}-N′-hydroxy-1,2,5-oxadiazole-3-carboximidamide]	125	37.9	78.1		
CNC(=O)C1(CSc2nonc2/C(=N/O)Nc2ccc(F)c(Br)c2)CC1 [Example 69, 1-[({4-[N-(3-bromo-4-fluorophenyl)-N′-hydroxycarbamimidoyl]-1,2,5-oxadiazol-3-yl}sulfanyl)methyl]-N-methylcyclopropanecarboxamide]		90.8	103		
COC(=O)C1(Sc2nonc2/C(=N/O)Nc2ccc(F)c(Br)c2)CCC1 [Example 21, Methyl (Z)-1-((4-(N-(3-bromo-4-fluorophenyl)-N′-hydroxycarbamimidoyl)-1,2,5-oxadiazol-3-yl)thio)cyclobutane-1-carboxylate]		242	524		
O=c1c(NCCSc2nonc2/C(=N/O)Nc2ccc(F)c(Br)c2)c(NCc2ccncc2)c1=O [Example 95, N-(3-bromo-4-fluorophenyl)-4-{[2-({3,4-dioxo-2-[(pyridin-4-ylmethyl)amino]cyclobut-1-en-1-yl}amino)ethyl]sulfanyl}-N′-hydroxy-1,2,5-oxadiazole-3-carboximidamide]	27.8		723		
